# Source: patent publication US10883993B2, “P53 biomarkers” (MULTIVIR INC., priority 2008, dated 2021)
# B1: Vitaxin®: a monoclonal antibody directed against the αv/β3 vascular integrin (antibody, chains of the INN, looked up, V domains shown)
# VH: QVQLVESGGGVVQPGRSLRLSCAASGFTFSSYDMSWVRQAPGKGLEWVAKVSSGGGSTYYLDTVQGRFTISRDNSKNTLYLQMNSLRAEDTAVYYCARHLHGSFASWGQGTTVTVSS
# VL: EIVLTQSPATLSLSPGERATLSCQASQSISNFLHWYQQRPGQAPRLLIRYRSQSISGIPARFSGSGSGTDFTLTISSLEPEDFAVYYCQQSGSWPLTFGGGTKVEIK
# Key:
# [1] = system: SCCHN; conditions: monotherapy studies in SCCHN, ITT population, standard of care drugs; cited from earlier work
# [2] = system: SCCHN patients; assay: Safety data, Phase III SCCHN study (ADVEXIN vs methotrexate)
# [3] = system: recurrent SCCHN; assay: Phase 3 pivotal trial T301 (ADVEXIN or methotrexate), tumor response and survival; assay type: in vivo, human
# Text: Favorable response to the therapy may comprise reduction in tumor size or burden, blocking of tumor growth, reduction in tumor-associated pain, reduction in tumor-associated pathology, reduction in tumor-associated symptoms, tumor non-progression, increased disease free interval, increased time to progression, induction of remission, reduction of metastasis, or increased patient survival. Particularly, “tumor response” may refer to tumor growth control (tumor growth control (TGC) defined by complete (CR) and partial (PR) reductions in size of >50% or Stable Disease (SD); TGC=CR+PR+SD) or reductions in tumor size of >10%.
# Table 2 summarizes the results of these analyses and provides the corresponding data for patients treated with methotrexate in the pivotal Phase 3 T301 study.
# [4] = target: T1, αv/β3 vascular integrin (Homo sapiens, UniProt P05106+P06756); conditions: Phase II clinical trials in humans, without harmful side effects; cited from earlier work
# T1 construct: the new blood vessels in tumors express a vascular integrin, designated αv/β3; host or cells: tumour blood vessels of human patients
# [5] = system: αv/β3 vascular integrin; conditions: mice, without harming them; cited from earlier work
# [6] = T301, p53 gene status wild type
# [7] = T301 methotrexate ITT population
# T1 sequence (P06756 31-889 limits assumed): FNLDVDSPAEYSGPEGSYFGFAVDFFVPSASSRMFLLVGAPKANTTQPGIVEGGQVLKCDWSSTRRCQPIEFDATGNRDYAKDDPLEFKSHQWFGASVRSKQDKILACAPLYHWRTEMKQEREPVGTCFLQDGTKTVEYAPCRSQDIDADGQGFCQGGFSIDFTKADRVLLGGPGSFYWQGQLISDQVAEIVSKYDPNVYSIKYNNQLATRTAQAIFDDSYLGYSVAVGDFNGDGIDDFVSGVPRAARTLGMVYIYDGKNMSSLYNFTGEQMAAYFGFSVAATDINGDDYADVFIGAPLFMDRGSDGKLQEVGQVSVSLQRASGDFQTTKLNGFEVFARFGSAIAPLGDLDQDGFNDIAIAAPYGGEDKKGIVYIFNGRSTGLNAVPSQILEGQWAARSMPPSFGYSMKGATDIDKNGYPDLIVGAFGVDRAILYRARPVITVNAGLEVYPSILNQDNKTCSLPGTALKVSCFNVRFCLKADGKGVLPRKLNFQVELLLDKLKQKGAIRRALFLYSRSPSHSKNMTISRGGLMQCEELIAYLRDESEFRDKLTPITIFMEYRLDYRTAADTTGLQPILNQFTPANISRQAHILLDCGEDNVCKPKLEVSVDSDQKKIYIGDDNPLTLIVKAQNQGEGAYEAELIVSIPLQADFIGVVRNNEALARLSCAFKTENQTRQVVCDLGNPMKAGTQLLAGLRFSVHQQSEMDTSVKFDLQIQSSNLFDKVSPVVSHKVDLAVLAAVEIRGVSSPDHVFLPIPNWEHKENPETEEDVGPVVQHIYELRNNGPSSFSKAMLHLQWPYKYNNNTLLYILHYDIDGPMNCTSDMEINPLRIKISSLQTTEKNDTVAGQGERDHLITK
# T1 sequence (P06756 891-1048 limits assumed): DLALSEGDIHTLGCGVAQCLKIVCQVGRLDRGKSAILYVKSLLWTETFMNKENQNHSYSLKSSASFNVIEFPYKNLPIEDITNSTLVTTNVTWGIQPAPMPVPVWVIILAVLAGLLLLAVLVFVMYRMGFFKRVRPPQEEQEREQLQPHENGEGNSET
# T1 sequence (P05106 27-788): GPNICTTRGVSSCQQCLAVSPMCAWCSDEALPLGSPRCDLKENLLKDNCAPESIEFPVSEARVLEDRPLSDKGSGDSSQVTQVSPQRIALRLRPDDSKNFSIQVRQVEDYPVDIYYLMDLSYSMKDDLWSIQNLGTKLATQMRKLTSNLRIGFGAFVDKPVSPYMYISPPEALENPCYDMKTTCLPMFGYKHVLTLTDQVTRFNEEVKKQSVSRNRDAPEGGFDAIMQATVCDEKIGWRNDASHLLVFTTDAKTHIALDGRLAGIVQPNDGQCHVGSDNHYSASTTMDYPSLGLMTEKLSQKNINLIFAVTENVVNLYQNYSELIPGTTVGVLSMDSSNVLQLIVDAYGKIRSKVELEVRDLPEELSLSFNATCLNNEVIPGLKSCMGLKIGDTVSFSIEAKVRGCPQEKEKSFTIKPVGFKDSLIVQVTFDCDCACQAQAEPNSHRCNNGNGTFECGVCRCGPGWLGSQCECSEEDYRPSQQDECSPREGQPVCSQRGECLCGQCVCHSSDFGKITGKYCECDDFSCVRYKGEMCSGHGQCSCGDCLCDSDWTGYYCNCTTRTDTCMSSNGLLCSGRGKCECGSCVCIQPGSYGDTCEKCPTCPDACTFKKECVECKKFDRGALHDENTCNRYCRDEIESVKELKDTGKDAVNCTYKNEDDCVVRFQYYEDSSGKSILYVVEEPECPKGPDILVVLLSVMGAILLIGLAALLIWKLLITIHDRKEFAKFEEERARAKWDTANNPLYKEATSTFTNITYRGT
molecule,measurement,setting,value
Cisplatin/5FU,Median Overall Survival,[1],5.6-6.4 months
CC(=O)O[C@@]12CO[C@@H]1C[C@H](O)[C@@]1(C)C(=O)[C@H](O)C3=C(C)[C@@H](OC(=O)[C@H](O)[C@@H](NC(=O)OC(C)(C)C)c4ccccc4)C[C@@](O)([C@@H](OC(=O)c4ccccc4)[C@H]21)C3(C)C [Docetaxel],Median Overall Survival,[1],6.6 months
C#Cc1cccc(Nc2ncnc3cc(OCCOC)c(OCCOC)cc23)c1 [Erlotinib],Median Overall Survival,[1],5.8 months
Carboplatin/5FU,Median Overall Survival,[1],5.0 months
CC(=O)O[C@H]1C(=O)[C@@]2(C)[C@H]([C@H](OC(=O)c3ccccc3)[C@]3(O)C[C@H](OC(=O)[C@H](O)[C@@H](NC(=O)c4ccccc4)c4ccccc4)C(C)=C1C3(C)C)[C@]1(OC(C)=O)CO[C@@H]1C[C@@H]2O [Paclitaxel],Median Overall Survival,[1],4.4 months
CN(Cc1cnc2nc(N)nc(N)c2n1)c1ccc(C(=O)N[C@@H](CCC(=O)O)C(=O)O)cc1 [Methotrexate],Grade 3 or 4 laboratory event: leukopenia,[2]; Phase III SCCHN study,12.1%
same,Grade 3 or 4 laboratory event: lymphopenia,[2]; Phase III SCCHN study,25.6%
same,Grade 3 or 4 laboratory event: neutropenia,[2]; Phase III SCCHN study,12.1%
same,Incidence of Grade 3 or 4 laboratory events,[2]; Phase III SCCHN study,39.5%
same,Body weight loss over time,"[2]; Phase III SCCHN study, compared with ADVEXIN patients",more body weight loss
same,Deaths attributed to treatment,"[2]; Phase III recurrent SCCHN study, due to leukopenia",one death
same,"Incidences of stomatitis, nausea, pneumonia, paresthesia, leucopenia and neutropenia","[2]; Phase III study, relative to ADVEXIN",higher incidences
same,Median Overall Survival,[1],4.2-5.6 months
same,"Median survival, patients with p53 profiles favorable for ADVEXIN efficacy",[3]; T301,4.3 months
same,"Median survival, patients with p53 profiles unfavorable for ADVEXIN efficacy",[3]; T301,6.0 months
same,"Tumor Growth Control, patients with TGC / patients","[3]; T301, p53 gene status mutated",13/15
same,"Tumor Growth Control, percentage of patients","[3]; T301, p53 gene status mutated",87%
same,"Tumor Growth Control, patients with TGC / patients",[3]; [6],11/20
same,"Tumor Growth Control, percentage of patients",[3]; [6],55%
same,"Median Survival, TGC Non-Responders",[3]; T301 ITT population,3.8 months
same,"Median Survival, TGC Responders",[3]; T301 ITT population,7.5 months
same,% Tumor Growth Control,"[3]; T301 ITT population, TGC = CR+PR+SD",53.3%
same,% Tumor Response (≥10% tumor reduction),[3]; [7],18.3%
same,% Tumor Response (≥50% tumor reduction),[3]; [7],11.7%
same,"Median Survival, Non-Responders (≥10% tumor reduction criterion)",[3]; [7],4.3 months
same,"Median Survival, Non-Responders (≥50% tumor reduction criterion)",[3]; [7],4.6 months
same,"Median Survival, Responders (≥10% tumor reduction)",[3]; [7],11.9 months
same,"Median Survival, Responders (≥50% tumor reduction)",[3]; [7],14.4 months
B1,Effect on solid tumors,[4],some promise in shrinking solid tumors
same,Effect on tumors,[5],shrinks tumors
